Experimental findings from US20180265467A1, “PYRAZOLIDINE DERIVATIVES AND RELATED COMPOUNDS” (SELVITA S.A., priority 2015, published 2018) are described below.

Molecules are shown by their SMILES. A value given as a limit tells only on which side of the number the result lay.

One experiment has as its target T1, LDHA (Homo sapiens, UniProt P00338).
T1 construct: purchased Abcam ab93699
The experiment can be described thus: LDHA assay (decrease in NADH fluorescence). Format: biochemical. The note with it: numeric bound given instead of a class symbol. How it is done:
LDHA and LDHB inhibitory activity of compounds of the present invention is quantified employing the decrease in fluorescence of the cofactor—NADH (being the result of oxidation of NADH to NAD+), over the reaction. […] All the experiments are performed in duplicates in a 96-well plate system (black, flat bottom, non-binding).
The procedure for preparation of the experimental plate is as follows (total volume of the reaction mixture: 200 μL/well):
Conditions for LDHA (Abcam, Cat. No# ab93699) Assay
Mixture of appropriate 1× concentrated reaction buffer (175 μL/well) and 40× concentrated LDHA (5 μL/well); pre-incubate for 30 mins at RT is combined with 20× concentrated pyruvate (10 μL/well) and 20× concentrated NADH (10 μL/well). Tested compounds are dissolved in solvent (DMSO, MeOH, EtOH), and then transferred to the V-bottom 96-well plate (mother plate). Single dilution (for % of inhibition determination) or 8-serial dilutions (for IC50 determination) are prepared using the appropriate solvent. The level of NADH fluorescence is then measured using multimode microplate reader (EnSpire, Perkin Elmer). The reaction should be monitored over 20 minutes with the full plate read performed each 5 minutes. Enzymatic reaction should be run at RT.
IC50 is a quantitative measure that indicates how much of a particular compound (inhibitor) is needed to inhibit a given biological process by half. […]

Another experiment concerns SNU-398 cells. The experiment can be described thus: SNU-398 cellular lactate production assay. Format: cell-based. The note with it: Snu398 cells; shown in FIG. 1. The protocol:
In each case, and by methods known to those practiced, measurement of cellular lactate production is used to measure the activity of compounds on cancer cells.
Cells are seeded on 96-well plate in complete culture medium (200 μL media/well) at a density of 80,000 SNU-398 cells/well. The following day, eight serial dilutions of the test compound is prepared in complete culture medium and added to cells in a fresh media for 2 h. Following incubation 30 μL of culture medium from each well is transferred to a corresponding well on a new 96-well plate. In parallel Lactate Standard (30 μL/well) (Sigma, Cat. # L7022) is prepared in order to create a standard curve. 60 μL of Lactate Reagent (P000024, M Dialysis AB) is added to each well containing lactate standards or test samples and Incubated in dark for 10 min at RT followed by measurement of OD at 530 nm in a microplate reader.
Background subtracted values derived from the lactate standard and sample readings are used to determine ED50 (or % of inhibition) from data obtained in SNU-398 cellular lactate production assay:
ED50 is a quantitative measure that indicates how much of a particular compound is needed to reduce SNU-398 lactate production by half. After normalization to DMSO-control, the value of ED50 is determined by the GraphPad Prism 5.0 [log(inhibitor) vs. normalized response—Variable slope]. […]

Usually IC50 stands for the concentration at which inhibition is half-maximal. Low values mean greater potency in that assay, high ones weaker potency in that assay. For the molecule `O=C1N[C@H](Cc2ccccc2)C(O)=C1Sc1cc(Br)ccc1Cl` [Example 6E, 5-benzyl-3-[(5-bromo-2-chlorophenyl)sulfanyl]pyrrolidine-2,4-dione], on LDHA, the half-maximal inhibitory concentration (IC50) was over 300 µM.

With `O=c1c(Sc2ccccc2Cl)c(O)[nH]n1C(c1ccccc1)c1ccc(N2CCOCC2)cc1` (centres unmarked) [Example 8A, Ammonium 4-[(2-chlorophenyl)sulfanyl]-2-{[4-(morpholin-4-yl)phenyl](phenyl)methyl}-5-oxo-2,5-dihydro-1H-pyrazol-3-olate], the “Inhibition of lactate production” value in the experiment with SNU-398 cells was “Inhibition of lactate production”.
